Source: BindingDB's records for doi:10.7270/Q2B27SQ0 (Nmmlsc, 2008)

Each molecule was assayed against Apoptosis regulator Bcl-2 (Homo sapiens, UniProt P10415) (assay: PubChem AID 950). Settings: not given.
Apoptosis regulator Bcl-2, sequence (P10415 whole entry): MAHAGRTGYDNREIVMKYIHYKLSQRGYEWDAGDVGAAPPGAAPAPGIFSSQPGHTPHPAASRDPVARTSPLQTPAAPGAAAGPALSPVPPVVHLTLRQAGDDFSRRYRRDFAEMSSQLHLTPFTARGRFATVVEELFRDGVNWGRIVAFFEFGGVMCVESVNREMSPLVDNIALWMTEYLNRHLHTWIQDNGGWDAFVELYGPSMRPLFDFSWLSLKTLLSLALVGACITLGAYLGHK
`Clc1ccc2c(N=NCc3ccccc3Br)ccnc2c1` [MLS000336087] showed an EC50 of 9.15 µM. In the case of `CCC(=O)N(CC)C1C(=O)C(=O)c2ccccc2C1=O` (configuration not stated) [N-ethyl-N-(1-hydroxy-3,4-dioxo-2-naphthalenyl)propanamide], the EC50 is reported as 0.98 µM. `C=CCn1c(SCC(=O)Nc2ccc3c(c2)OCO3)nnc1-c1cc(Br)ccc1O` [2-[[(5Z)-4-allyl-5-(3-bromo-6-keto-cyclohexa-2,4-dien-1-ylidene)-1H-1,2,4-triazol-3-yl]thio]-N-(1,3-benzodioxol-5-yl)acetamide] gave an EC50 of 15.8 µM. `CN(C)[C@@H]1C(=O)C(C(=O)NCN2CCCC2)C(=O)[C@@]2(O)C(=O)C3C(=O)c4c(O)cccc4[C@@](C)(O)C3CC12` (stereo partly drawn) [(2Z,4S,6S,12aS)-4-(dimethylamino)-6,10,11,12a-tetrahydroxy-2-[hydroxy-(1-pyrrolidinylmethylamino)methylidene]-6-methyl-4,4a,5,5a-tetrahydrotetracene-1,3,12-trione] showed an EC50 of 23.7 µM.

Same assay, conditions: inactive by the depositor's call
Molecule `CCc1ccc(/C=C/C(=O)c2cc(Br)ccc(=O)c2O)cc1` [5-bromo-3-[(E)-3-(4-ethylphenyl)-1-oxoprop-2-enyl]-2-hydroxy-1-cyclohepta-2,4,6-trienone] has an EC50 of 76.4 µM. In the case of `C/C(=C\c1ccco1)C1Nc2cccc3cccc(c23)N1` [MLS000055728], the EC50 is reported as 14.2 µM. In the case of `Cc1ccc(-c2ccc(/C=C3\SC(N4CCOCC4)=NC3=O)o2)cc1` [(5Z)-5-[[5-(4-methylphenyl)-2-furanyl]methylidene]-2-(4-morpholinyl)-4-thiazolone], the EC50 is reported as 44.6 µM. `COc1cc(C2Nc3cccc4cccc(c34)N2)ccc1OC(C)=O` [Acetic acid 4-(2,3-dihydro-1H-perimidin-2-yl)-2-methoxy-phenyl ester] showed an EC50 of 11.4 µM. Work on `O=C(/C=C\c1ccc(-c2ccccc2)o1)c1ccccc1` [(Z)-1-phenyl-3-(5-phenyl-2-furanyl)-2-propen-1-one] yielded an EC50 of 34.9 µM. `CCOC(=O)c1c(O)nc2ccc(Cl)c3c2c1-c1ccccc1C3=O` [MLS000704595] showed an EC50 of 7.65 µM. `O=C(c1ccccc1)c1ccc2nc(-c3ccco3)c(-c3ccco3)nc2c1` showed an EC50 of 16 µM. `CN(C)c1ncc(C2=C(Cl)C(=O)C(N3CCCC3)=C(Cl)C2=O)s1` showed an EC50 of 0.21 µM. With `CNc1ccc(Br)cc(C(=O)/C=C/c2cccc(OC)c2)c1=O` [4-bromo-2-[3-(3-methoxyphenyl)acryloyl]-7-(methylamino)-2,4,6-cycloheptatrien-1-one] the EC50 was 55 µM. With `O=C1c2ccccc2-c2onc3ccc(N4CCCC4)c1c23` [SMR000279741] the EC50 was 27.9 µM. `Cc1ccc(C)c(/C=C/C(=O)c2ccccc(=O)c2O)c1` was tested, and the EC50 was 19.4 µM. In the case of `CCN(CC)C(=O)COC(=O)c1cc(-c2ccco2)nc2ccccc12` [SMR000377201], the EC50 is reported as 4.95 µM. In the case of `Nc1ccc(C2=Nc3cccc4cccc(c34)N2)cc1` [SMR000175908], the EC50 is reported as 18.1 µM.
